Several values for one entry are separate records, joined by “and”; a condition that tells them apart may be missing. Equal entries are not always repeated.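 Interpolation was linear, between the two tested concentrations surrounding the appropriate level; five concentrations were tested over 48 hours in 96-well plates. Here, GI50 denotes the concentration required for 50% inhibition of growth. TGI is the concentration that stops growth completely.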
Columns and labels:
Assay in all cases: inhibition of tumour cell growth, NCI panel, 48 h
SR leukemia = system: SR leukemia
IGROV1 ovarian = system: IGROV1 ovarian
EKVX NSCLC = system: EKVX NSCLC
SF-295 CNS = system: SF-295 CNS
UACC-62 melanoma = system: UACC-62 melanoma
K-562 leukemia = system: K-562 leukemia
SNB-19 CNS = system: SNB-19 CNS
HOP-62 NSCLC = system: HOP-62 NSCLC
RPMI-8226 leukemia = system: RPMI-8226 leukemia
HOP-92 NSCLC = system: HOP-92 NSCLC

Molecule COc1ccc2c(c1)/C(=C/c1c(C)nc3sc(C)nn13)C(=O)N2 has a GI50 (SR leukemia) of 0.31 µM, a GI50 (IGROV1 ovarian) of 2.18 µM and a TGI (IGROV1 ovarian) greater than 100 µM. For the same molecule, the GI50 (EKVX NSCLC) was 8.36 µM, the TGI (EKVX NSCLC) was greater than 100 µM and the GI50 (SF-295 CNS) was 1.48 µM. The TGI (SF-295 CNS) was 50.3 µM, the GI50 (UACC-62 melanoma) was 6.24 µM and the TGI (UACC-62 melanoma) was greater than 100 µM. It also gave a GI50 (K-562 leukemia) of 0.394 µM, a GI50 (SNB-19 CNS) of 1.94 µM and a TGI (SNB-19 CNS) greater than 37 µM. For the same molecule, the GI50 (HOP-62 NSCLC) was 4.35 µM, the TGI (HOP-62 NSCLC) was 61.9 µM and the GI50 (RPMI-8226 leukemia) was 4.17 µM. For the same molecule, the TGI (RPMI-8226 leukemia) was greater than 100 µM, the GI50 (HOP-92 NSCLC) was 9.86 µM and the TGI (HOP-92 NSCLC) was greater than 77.8 µM.
In the case of O=C(/C=C/C12c3ccccc3C(c3ccccc31)C1C(=O)NC(=O)C12)c1ccncc1 (stereo not drawn), the GI50 (SR leukemia) is reported as 1.76 µM, the TGI (SR leukemia) is reported as 7.34 µM and the GI50 (IGROV1 ovarian) is reported as 2.39 µM. The TGI (IGROV1 ovarian) was 8 µM, the GI50 (EKVX NSCLC) was 6.02 µM and the TGI (EKVX NSCLC) was 20.8 µM. For the same molecule, the GI50 (SF-295 CNS) was 2.59 µM, the TGI (SF-295 CNS) was 7.54 µM and the GI50 (UACC-62 melanoma) was 1.87 µM. For the same molecule, the TGI (UACC-62 melanoma) was 3.88 µM, the GI50 (K-562 leukemia) was 1.88 µM and the TGI (K-562 leukemia) was greater than 100 µM. The GI50 (SNB-19 CNS) was 2.33 µM, the TGI (SNB-19 CNS) was 7.46 µM and the GI50 (HOP-62 NSCLC) was 2.4 µM. The TGI (HOP-62 NSCLC) was 6.73 µM, the GI50 (RPMI-8226 leukemia) was 2.11 µM and the TGI (RPMI-8226 leukemia) was 5.48 µM. It also gave a GI50 (HOP-92 NSCLC) of 1.94 µM and a TGI (HOP-92 NSCLC) of 6.27 µM.
For COC1=CC(c2ccc[nH]2)=N/C1=C\c1[nH]c(C)c(C(=O)OC(C)C)c1C, the GI50 (SR leukemia) was 0.0257 µM, the TGI (SR leukemia) was 0.291 µM and the GI50 (IGROV1 ovarian) was 0.0535 µM. It also gave a TGI (IGROV1 ovarian) of 1.62 µM, a GI50 (EKVX NSCLC) of 0.0799 µM and a TGI (EKVX NSCLC) of 2.31 µM. For the same molecule, the GI50 (SF-295 CNS) was 0.0264 µM, the TGI (SF-295 CNS) was 0.123 µM and the GI50 (UACC-62 melanoma) was 0.025 µM. The TGI (UACC-62 melanoma) was 0.0578 µM, the GI50 (K-562 leukemia) was 0.0674 µM and the TGI (K-562 leukemia) was 1.14 µM. It also gave a GI50 (SNB-19 CNS) of 0.866 µM, a TGI (SNB-19 CNS) of 34.9 µM and a GI50 (HOP-62 NSCLC) of 0.123 µM. The TGI (HOP-62 NSCLC) was 1.84 µM, the GI50 (RPMI-8226 leukemia) was 0.223 µM and the TGI (RPMI-8226 leukemia) was 2.47 µM. The GI50 (HOP-92 NSCLC) was 0.0239 µM and the TGI (HOP-92 NSCLC) was 0.0815 µM.
In the case of CCC(CO)Nc1nc2ccc(Cl)cc2c2ccccc12 (stereo not drawn), the GI50 (SR leukemia) is reported as 1.57 µM, the TGI (SR leukemia) is reported as 13.5 µM and the GI50 (IGROV1 ovarian) is reported as 11.2 µM. For the same molecule, the TGI (IGROV1 ovarian) was 23.5 µM, the GI50 (EKVX NSCLC) was 6.23 µM and the TGI (EKVX NSCLC) was 20.2 µM. For the same molecule, the GI50 (SF-295 CNS) was 2.81 µM, the TGI (SF-295 CNS) was 15.3 µM and the GI50 (UACC-62 melanoma) was 4.71 µM. The TGI (UACC-62 melanoma) was 17 µM, the GI50 (K-562 leukemia) was 3.01 µM and the TGI (K-562 leukemia) was 11.5 µM. It also gave a GI50 (SNB-19 CNS) of 8.53 µM, a TGI (SNB-19 CNS) of 21.3 µM and a GI50 (HOP-62 NSCLC) of 7.95 µM. It also gave a TGI (HOP-62 NSCLC) of 21 µM, a GI50 (RPMI-8226 leukemia) of 4.04 µM and a TGI (RPMI-8226 leukemia) of 26.4 µM. For the same molecule, the GI50 (HOP-92 NSCLC) was 3.06 µM and the TGI (HOP-92 NSCLC) was 14.8 µM.
CCOC(=O)C1=C(C)NC(=S)NC1c1ccccc1 (stereo not drawn) was tested, and the TGI (SR leukemia) was 50.2 µM, the TGI (IGROV1 ovarian) was greater than 100 µM and the TGI (EKVX NSCLC) was greater than 100 µM. It also gave a TGI (SF-295 CNS) greater than 100 µM, a TGI (UACC-62 melanoma) greater than 100 µM and a TGI (K-562 leukemia) greater than 75.1 µM. It also gave a TGI (SNB-19 CNS) greater than 22.5 µM, a TGI (HOP-62 NSCLC) greater than 100 µM and a TGI (RPMI-8226 leukemia) greater than 65.6 µM. It also gave a TGI (HOP-92 NSCLC) greater than 100 µM.
With COC(CN1C(=O)c2cccc3cccc(c23)C1=O)OC the TGI (SR leukemia) was greater than 100 µM, the TGI (IGROV1 ovarian) was greater than 100 µM and the TGI (EKVX NSCLC) was greater than 100 µM. For the same molecule, the TGI (SF-295 CNS) was greater than 100 µM, the TGI (UACC-62 melanoma) was greater than 100 µM and the TGI (K-562 leukemia) was greater than 100 µM. For the same molecule, the TGI (SNB-19 CNS) was greater than 100 µM, the TGI (HOP-62 NSCLC) was greater than 100 µM and the TGI (RPMI-8226 leukemia) was greater than 100 µM. For the same molecule, the TGI (HOP-92 NSCLC) was greater than 100 µM.
With Cc1nc2ccccc2c(N)c1-c1cc(C)c2c(C)nc3ccccc3c2n1 the GI50 (SR leukemia) was 0.19 µM, the TGI (SR leukemia) was 2.59 µM and the GI50 (IGROV1 ovarian) was 0.294 µM. It also gave a TGI (IGROV1 ovarian) of 0.86 µM, a GI50 (EKVX NSCLC) of 1.61 µM and a TGI (EKVX NSCLC) of 3.29 µM. The GI50 (SF-295 CNS) was 1.34 µM, the TGI (SF-295 CNS) was 2.74 µM and the GI50 (UACC-62 melanoma) was 1.29 µM. The TGI (UACC-62 melanoma) was 2.61 µM, the GI50 (K-562 leukemia) was 0.256 µM and the TGI (K-562 leukemia) was greater than 100 µM. It also gave a GI50 (SNB-19 CNS) of 1.59 µM, a TGI (SNB-19 CNS) of 3.39 µM and a GI50 (HOP-62 NSCLC) of 1.77 µM. The TGI (HOP-62 NSCLC) was 3.36 µM, the GI50 (RPMI-8226 leukemia) was 0.173 µM and the TGI (RPMI-8226 leukemia) was 0.52 µM. For the same molecule, the GI50 (HOP-92 NSCLC) was 1.46 µM and the TGI (HOP-92 NSCLC) was 3.38 µM.
With COC1CCC(N2C(=O)CNc3ncc(-c4ccc(C(C)(C)O)nc4)nc32)CC1 (stereo not drawn) the GI50 (SR leukemia) was 1.06 µM and 0.331 µM, the TGI (SR leukemia) was greater than 47.2 µM and the GI50 (IGROV1 ovarian) was 0.315 µM and 0.0564 µM. The TGI (IGROV1 ovarian) was 2.8 µM and 1.64 µM, the GI50 (EKVX NSCLC) was 1.21 µM and 0.186 µM and the TGI (EKVX NSCLC) was > 8.47 µM and 6.7 µM. For the same molecule, the GI50 (SF-295 CNS) was 0.511 µM and 0.157 µM, the TGI (SF-295 CNS) was 4.75 µM and 3.09 µM and the GI50 (UACC-62 melanoma) was 0.237 µM and 0.111 µM. For the same molecule, the TGI (UACC-62 melanoma) was 2.08 µM and 1.26 µM, the GI50 (K-562 leukemia) was 2.28 µM and 0.77 µM and the TGI (K-562 leukemia) was greater than 100 µM. The GI50 (SNB-19 CNS) was 2.02 µM and 1.57 µM, the TGI (SNB-19 CNS) was greater than 36.2 µM and the GI50 (HOP-62 NSCLC) was 1.92 µM and 0.437 µM. For the same molecule, the TGI (HOP-62 NSCLC) was > 10 µM and 14.5 µM, the GI50 (RPMI-8226 leukemia) was 0.376 µM and 0.0559 µM and the TGI (RPMI-8226 leukemia) was 2.95 µM and 3.97 µM. The GI50 (HOP-92 NSCLC) was 0.129 µM and 0.0247 µM and the TGI (HOP-92 NSCLC) was 0.934 µM and 0.389 µM.
With O=C1CC(c2ccc3c(c2)OCO3)Nc2ccccc21 (stereo not drawn) the GI50 (SR leukemia) was 4.56 µM, the TGI (SR leukemia) was greater than 100 µM and the GI50 (IGROV1 ovarian) was 10.9 µM. For the same molecule, the TGI (IGROV1 ovarian) was 47.8 µM, the GI50 (EKVX NSCLC) was 11.8 µM and the TGI (EKVX NSCLC) was 46.4 µM. For the same molecule, the GI50 (SF-295 CNS) was 10.1 µM, the TGI (SF-295 CNS) was 24.1 µM and the GI50 (UACC-62 melanoma) was 11.7 µM. It also gave a TGI (UACC-62 melanoma) of 30.3 µM, a GI50 (K-562 leukemia) of 3.33 µM and a TGI (K-562 leukemia) greater than 100 µM. It also gave a GI50 (SNB-19 CNS) of 12.5 µM, a TGI (SNB-19 CNS) of 30.2 µM and a GI50 (HOP-62 NSCLC) of 14.2 µM. It also gave a TGI (HOP-62 NSCLC) of 86 µM, a GI50 (RPMI-8226 leukemia) of 3.05 µM and a TGI (RPMI-8226 leukemia) of 13.3 µM. It also gave a GI50 (HOP-92 NSCLC) of 4.96 µM and a TGI (HOP-92 NSCLC) of 32.3 µM.
For CC1=C(C(=O)NCc2ccccc2)C(/C=C/c2ccccc2)C(C(=O)NCc2ccccc2)=C(C)N1, the TGI (SR leukemia) was greater than 100 µM, the TGI (IGROV1 ovarian) was greater than 100 µM and the TGI (EKVX NSCLC) was greater than 100 µM. The TGI (SF-295 CNS) was greater than 100 µM, the TGI (UACC-62 melanoma) was greater than 100 µM and the TGI (K-562 leukemia) was greater than 100 µM. The TGI (SNB-19 CNS) was greater than 100 µM, the TGI (HOP-62 NSCLC) was greater than 100 µM and the TGI (RPMI-8226 leukemia) was greater than 100 µM. For the same molecule, the TGI (HOP-92 NSCLC) was greater than 100 µM.
With Brc1ccc(N=c2nc3ccccn3n3nc(-c4ccccc4)cc23)cc1 the TGI (SR leukemia) was greater than 100 µM, the TGI (IGROV1 ovarian) was greater than 100 µM and the TGI (EKVX NSCLC) was greater than 100 µM. It also gave a TGI (SF-295 CNS) greater than 100 µM, a TGI (UACC-62 melanoma) of 63.3 µM and a TGI (K-562 leukemia) greater than 100 µM. For the same molecule, the TGI (SNB-19 CNS) was 95.1 µM, the TGI (HOP-62 NSCLC) was 32.8 µM and the TGI (RPMI-8226 leukemia) was greater than 100 µM. For the same molecule, the TGI (HOP-92 NSCLC) was 87.2 µM.
In the case of C=C1C(=O)C23CC1CCC2C12CO[C@@H]4OCC(C)(CC[C@@H]1OC3=O)C42 (stereo partly drawn), the TGI (SR leukemia) is reported as 26.4 µM, the TGI (IGROV1 ovarian) is reported as 14.1 µM and the TGI (EKVX NSCLC) is reported as 32.1 µM. It also gave a TGI (SF-295 CNS) of 30.9 µM, a TGI (UACC-62 melanoma) of 17.3 µM and a TGI (K-562 leukemia) greater than 100 µM. The TGI (SNB-19 CNS) was 20.3 µM, the TGI (HOP-62 NSCLC) was 43.4 µM and the TGI (RPMI-8226 leukemia) was 19 µM. The TGI (HOP-92 NSCLC) was 5.78 µM.

Reference: PubChem BioAssay (NCI)
